Patent publication EP4745137A1 (Gluetacs Therapeutics (Shanghai) Co., Ltd., priority 2023, dated 2025)

Tests used:
Format in all cases: cell-based
Conditions in all cases: 24 hours of compound treatment, 50 nM and 500 nM tested (concentration behind the class not stated)
WEE1 = target: T1, WEE1 (Homo sapiens, UniProt P30291+Q96SW2); test: Western-blot assay of substrate protein degradation in hPBMCs, WEE1
T1 construct: endogenous in cells; host or cells: hPBMCs (Milecell Biotechnologies)

IKZF1 = target: T2, IKZF1 (Homo sapiens, UniProt Q13422+Q96SW2); test: Western-blot assay of substrate protein degradation in hPBMCs, IKZF1
T2 construct: endogenous in cells; host or cells: hPBMCs (Milecell Biotechnologies)

IKZF2 = target: T3, IKZF2 (Homo sapiens, UniProt Q96SW2+Q9UKS7); test: Western-blot assay of substrate protein degradation in hPBMCs, IKZF2
T3 construct: endogenous in cells; host or cells: hPBMCs (Milecell Biotechnologies)

IKZF3 = target: T4, IKZF3 (Homo sapiens, UniProt Q96SW2+Q9UKT9); test: Western-blot assay of substrate protein degradation in hPBMCs, IKZF3
T4 construct: endogenous in cells; host or cells: hPBMCs (Milecell Biotechnologies)

CK1α = target: T5, CK1α (Homo sapiens, UniProt P48729+Q96SW2); test: Western-blot assay of substrate protein degradation in hPBMCs, CK1α
T5 construct: endogenous in cells; host or cells: hPBMCs (Milecell Biotechnologies)

GSPT1 = target: T6, GSPT1 (Homo sapiens, UniProt P15170+Q96SW2); test: Western-blot assay of substrate protein degradation in hPBMCs, GSPT1
T6 construct: endogenous in cells; host or cells: hPBMCs (Milecell Biotechnologies)
T6 sequence (P15170 whole entry): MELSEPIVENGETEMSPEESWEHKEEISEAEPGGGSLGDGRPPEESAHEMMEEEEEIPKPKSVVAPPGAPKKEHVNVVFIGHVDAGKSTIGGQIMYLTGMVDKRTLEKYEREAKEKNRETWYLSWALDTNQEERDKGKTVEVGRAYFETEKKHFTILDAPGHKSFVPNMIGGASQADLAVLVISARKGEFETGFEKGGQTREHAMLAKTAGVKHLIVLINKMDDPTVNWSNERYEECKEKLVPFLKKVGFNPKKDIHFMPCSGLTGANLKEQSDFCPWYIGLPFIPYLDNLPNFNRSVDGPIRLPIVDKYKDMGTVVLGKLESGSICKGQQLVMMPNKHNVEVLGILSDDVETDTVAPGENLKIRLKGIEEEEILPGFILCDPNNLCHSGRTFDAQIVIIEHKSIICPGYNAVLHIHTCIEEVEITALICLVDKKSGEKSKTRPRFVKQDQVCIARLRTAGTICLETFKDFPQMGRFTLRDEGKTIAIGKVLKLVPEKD
T6 sequence (Q96SW2 whole entry): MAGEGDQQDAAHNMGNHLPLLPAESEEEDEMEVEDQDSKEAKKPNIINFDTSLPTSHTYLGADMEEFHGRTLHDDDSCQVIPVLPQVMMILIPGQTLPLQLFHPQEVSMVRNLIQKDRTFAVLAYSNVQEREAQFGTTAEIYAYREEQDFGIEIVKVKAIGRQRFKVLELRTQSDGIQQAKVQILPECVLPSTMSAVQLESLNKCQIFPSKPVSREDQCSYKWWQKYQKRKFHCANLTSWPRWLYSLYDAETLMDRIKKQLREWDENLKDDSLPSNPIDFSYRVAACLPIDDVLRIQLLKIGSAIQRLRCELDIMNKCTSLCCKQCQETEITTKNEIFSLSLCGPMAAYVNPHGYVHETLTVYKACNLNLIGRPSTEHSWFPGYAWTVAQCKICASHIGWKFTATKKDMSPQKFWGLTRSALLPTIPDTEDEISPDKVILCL
T6 sequence (Q16531 whole entry partner): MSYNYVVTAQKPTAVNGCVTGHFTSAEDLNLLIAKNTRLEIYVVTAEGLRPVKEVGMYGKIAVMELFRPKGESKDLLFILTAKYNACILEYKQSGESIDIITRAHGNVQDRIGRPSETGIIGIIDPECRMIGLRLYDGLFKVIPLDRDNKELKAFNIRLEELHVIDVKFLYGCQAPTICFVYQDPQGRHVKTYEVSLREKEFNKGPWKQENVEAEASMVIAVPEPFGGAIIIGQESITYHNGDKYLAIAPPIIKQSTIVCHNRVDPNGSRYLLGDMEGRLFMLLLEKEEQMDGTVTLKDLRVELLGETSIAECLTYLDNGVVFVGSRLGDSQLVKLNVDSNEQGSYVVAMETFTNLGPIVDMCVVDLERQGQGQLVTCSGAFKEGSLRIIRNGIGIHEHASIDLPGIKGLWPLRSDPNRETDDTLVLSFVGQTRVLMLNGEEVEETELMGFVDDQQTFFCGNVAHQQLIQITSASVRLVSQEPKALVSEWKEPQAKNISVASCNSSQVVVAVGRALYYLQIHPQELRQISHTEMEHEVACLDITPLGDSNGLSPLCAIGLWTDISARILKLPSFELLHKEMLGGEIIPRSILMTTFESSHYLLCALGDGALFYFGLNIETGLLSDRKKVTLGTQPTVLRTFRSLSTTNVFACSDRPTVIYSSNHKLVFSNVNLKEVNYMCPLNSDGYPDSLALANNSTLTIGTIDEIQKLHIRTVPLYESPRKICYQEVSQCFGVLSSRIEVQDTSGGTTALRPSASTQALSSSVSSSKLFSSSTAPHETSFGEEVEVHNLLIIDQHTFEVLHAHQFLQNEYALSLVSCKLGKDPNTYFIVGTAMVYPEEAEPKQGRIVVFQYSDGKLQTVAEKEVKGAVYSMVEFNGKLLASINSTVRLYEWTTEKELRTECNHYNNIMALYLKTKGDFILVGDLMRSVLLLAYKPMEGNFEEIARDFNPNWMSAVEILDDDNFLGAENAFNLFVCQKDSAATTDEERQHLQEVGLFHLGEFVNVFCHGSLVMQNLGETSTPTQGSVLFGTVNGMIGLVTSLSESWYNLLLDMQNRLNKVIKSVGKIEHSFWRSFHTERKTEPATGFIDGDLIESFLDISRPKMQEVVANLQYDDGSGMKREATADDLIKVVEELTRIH

T5 sequence (P48729 whole entry): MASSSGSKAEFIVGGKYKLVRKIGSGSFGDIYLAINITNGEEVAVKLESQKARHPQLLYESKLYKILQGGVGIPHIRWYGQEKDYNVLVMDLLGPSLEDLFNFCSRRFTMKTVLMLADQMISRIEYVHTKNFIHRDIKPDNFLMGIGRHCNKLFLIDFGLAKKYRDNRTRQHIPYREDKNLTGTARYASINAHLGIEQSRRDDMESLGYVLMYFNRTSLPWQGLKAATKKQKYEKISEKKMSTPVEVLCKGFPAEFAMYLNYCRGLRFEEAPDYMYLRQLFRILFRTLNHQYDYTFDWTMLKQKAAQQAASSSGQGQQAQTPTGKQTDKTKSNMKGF
T5 sequence (Q96SW2 whole entry): as the sequence (Q96SW2 whole entry) above
T5 sequence (Q16531 whole entry partner): as the sequence (Q16531 whole entry partner) above
T2 sequence (Q13422 whole entry): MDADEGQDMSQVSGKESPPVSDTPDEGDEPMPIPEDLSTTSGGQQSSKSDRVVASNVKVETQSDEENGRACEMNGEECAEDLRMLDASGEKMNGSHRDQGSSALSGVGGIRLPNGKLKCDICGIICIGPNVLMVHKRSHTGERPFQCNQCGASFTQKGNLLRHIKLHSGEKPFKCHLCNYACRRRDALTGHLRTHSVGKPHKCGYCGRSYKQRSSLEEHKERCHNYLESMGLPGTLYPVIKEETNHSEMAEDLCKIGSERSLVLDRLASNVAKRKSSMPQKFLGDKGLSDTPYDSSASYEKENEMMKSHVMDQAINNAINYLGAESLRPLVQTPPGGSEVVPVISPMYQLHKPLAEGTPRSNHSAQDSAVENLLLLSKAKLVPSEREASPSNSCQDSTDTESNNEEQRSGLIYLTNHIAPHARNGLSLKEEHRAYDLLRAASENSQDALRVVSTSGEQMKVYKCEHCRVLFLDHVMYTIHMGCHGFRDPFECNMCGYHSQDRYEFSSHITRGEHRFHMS
T2 sequence (Q96SW2 whole entry): as the sequence (Q96SW2 whole entry) above
T2 sequence (Q16531 whole entry partner): as the sequence (Q16531 whole entry partner) above
T1 sequence (P30291 whole entry): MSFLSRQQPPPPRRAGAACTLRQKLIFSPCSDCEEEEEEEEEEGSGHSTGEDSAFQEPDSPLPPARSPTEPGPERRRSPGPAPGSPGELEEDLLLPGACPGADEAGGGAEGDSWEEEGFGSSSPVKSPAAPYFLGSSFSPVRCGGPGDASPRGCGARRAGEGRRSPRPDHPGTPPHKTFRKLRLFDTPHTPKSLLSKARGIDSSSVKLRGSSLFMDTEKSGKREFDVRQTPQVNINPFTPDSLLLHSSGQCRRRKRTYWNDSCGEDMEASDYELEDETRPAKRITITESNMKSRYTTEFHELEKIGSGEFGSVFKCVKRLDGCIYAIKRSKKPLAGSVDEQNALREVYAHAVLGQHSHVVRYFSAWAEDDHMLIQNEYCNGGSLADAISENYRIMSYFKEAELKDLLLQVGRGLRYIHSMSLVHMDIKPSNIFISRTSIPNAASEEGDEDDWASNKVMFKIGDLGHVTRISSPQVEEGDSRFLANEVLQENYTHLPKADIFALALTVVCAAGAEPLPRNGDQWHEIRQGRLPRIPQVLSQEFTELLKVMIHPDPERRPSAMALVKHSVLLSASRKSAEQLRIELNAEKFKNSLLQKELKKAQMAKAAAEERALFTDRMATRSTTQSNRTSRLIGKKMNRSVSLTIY
T1 sequence (Q96SW2 whole entry): as the sequence (Q96SW2 whole entry) above
T1 sequence (Q16531 whole entry partner): as the sequence (Q16531 whole entry partner) above
T4 sequence (Q9UKT9 whole entry): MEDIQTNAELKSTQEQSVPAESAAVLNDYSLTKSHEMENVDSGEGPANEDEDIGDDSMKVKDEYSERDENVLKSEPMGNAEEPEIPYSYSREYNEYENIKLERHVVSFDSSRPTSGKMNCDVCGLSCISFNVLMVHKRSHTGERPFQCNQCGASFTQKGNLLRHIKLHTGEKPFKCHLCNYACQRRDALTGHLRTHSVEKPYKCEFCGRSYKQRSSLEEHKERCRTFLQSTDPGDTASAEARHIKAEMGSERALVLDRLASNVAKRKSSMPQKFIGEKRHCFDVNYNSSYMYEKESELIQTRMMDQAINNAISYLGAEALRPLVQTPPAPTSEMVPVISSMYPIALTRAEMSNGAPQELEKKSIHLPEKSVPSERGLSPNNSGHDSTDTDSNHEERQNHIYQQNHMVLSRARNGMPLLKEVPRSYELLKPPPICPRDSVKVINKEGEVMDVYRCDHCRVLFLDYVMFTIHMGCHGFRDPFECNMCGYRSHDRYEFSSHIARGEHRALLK
T4 sequence (Q96SW2 whole entry): as the sequence (Q96SW2 whole entry) above
T4 sequence (Q16531 whole entry partner): as the sequence (Q16531 whole entry partner) above

Row | SMILES | Weel substrate protein remaining % (WEE1) | IKZF 1 substrate protein remaining % (IKZF1) | IKZF2 substrate protein remaining % (IKZF2) | IKZF3 substrate protein remaining % (IKZF3) | CK1a substrate protein remaining % (CK1α) | GSPT1 substrate protein remaining % (GSPT1)
1 | COc1ccccc1N1CCN(Cc2ccc3c(c2)C(=O)N(C2CCC(=O)NC2=O)C3=O)CC1 (stereo not drawn) [GT-06287, 2-(2,6-dioxopiperidin-3-yl)-5-((4-(2-methoxyphenyl)piperazin-1-yl)methyl)isoindoline-1,3-dione] | B (80%< substrate protein remaining %≤ 100%) | B (80%< substrate protein remaining %≤ 100%) | B (80%< substrate protein remaining %≤ 100%) | B (80%< substrate protein remaining %≤ 100%) | B (80%< substrate protein remaining %≤ 100%) | A (0% ≤ substrate protein remaining % ≤ 80%)
2 | COc1cccc(N2CCN(Cc3ccc4c(c3)C(=O)N(C3CCC(=O)NC3=O)C4=O)CC2)c1 (stereo not drawn) [GT-06288, 2-(2,6-dioxopiperidin-3-yl)-5-((4-(3-methoxyphenyl)piperazin-1-yl)methyl)isoindoline-1,3-dione] | B (80%< substrate protein remaining %≤ 100%) | B (80%< substrate protein remaining %≤ 100%) | B (80%< substrate protein remaining %≤ 100%) | B (80%< substrate protein remaining %≤ 100%) | B (80%< substrate protein remaining %≤ 100%) | A (0% ≤ substrate protein remaining % ≤ 80%)
3 | O=C1CCC(N2C(=O)c3ccc(CN4CCN(c5cccc(Br)c5)CC4)cc3C2=O)C(=O)N1 (stereo not drawn) [GT-06289, 5-((4-(3-bromophenyl)piperazin-1-yl)methyl)-2-(2,6-dioxopiperidin-3-yl)isoindoline-1,3-dione] | B (80%< substrate protein remaining %≤ 100%) | B (80%< substrate protein remaining %≤ 100%) | B (80%< substrate protein remaining %≤ 100%) | B (80%< substrate protein remaining %≤ 100%) | B (80%< substrate protein remaining %≤ 100%) | A (0% ≤ substrate protein remaining % ≤ 80%)
4 | O=C1CCC(N2C(=O)c3ccc(CN4CCN(c5ccc(C(F)(F)F)cc5)CC4)cc3C2=O)C(=O)N1 (stereo not drawn) [GT-06290, 2-(2,6-dioxopiperidin-3-yl)-5-((4-(4-(trifluoromethyl)phenyl)piperazin-1-yl)methyl)isoindoline-1,3-dione] | B (80%< substrate protein remaining %≤ 100%) | B (80%< substrate protein remaining %≤ 100%) | B (80%< substrate protein remaining %≤ 100%) | B (80%< substrate protein remaining %≤ 100%) | B (80%< substrate protein remaining %≤ 100%) | A (0% ≤ substrate protein remaining % ≤ 80%)
5 | O=C1CCC(N2C(=O)c3ccc(CN4CCN(c5cccc(F)c5)CC4)cc3C2=O)C(=O)N1 (stereo not drawn) [GT-06291, 2-(2,6-dioxopiperidin-3-yl)-5-((4-(3-fluorophenyl)piperazin-1-yl)methyl)isoindoline-1,3-dione] | B (80%< substrate protein remaining %≤ 100%) | B (80%< substrate protein remaining %≤ 100%) | B (80%< substrate protein remaining %≤ 100%) | B (80%< substrate protein remaining %≤ 100%) | B (80%< substrate protein remaining %≤ 100%) | A (0% ≤ substrate protein remaining % ≤ 80%)
6 | O=C1CCC(N2C(=O)c3ccc(CN4CCN(c5ccc(F)cc5)CC4)cc3C2=O)C(=O)N1 (stereo not drawn) [GT-06292, 2-(2,6-dioxopiperidin-3-yl)-5-((4-(4-fluorophenyl)piperazin-1-yl)methyl)isoindoline-1,3-dione] | B (80%< substrate protein remaining %≤ 100%) | B (80%< substrate protein remaining %≤ 100%) | B (80%< substrate protein remaining %≤ 100%) | B (80%< substrate protein remaining %≤ 100%) | B (80%< substrate protein remaining %≤ 100%) | A (0% ≤ substrate protein remaining % ≤ 80%)
7 | O=C1CCC(N2C(=O)c3ccc(CN4CCN(c5ccccc5Br)CC4)cc3C2=O)C(=O)N1 (stereo not drawn) [GT-06293, 5-((4-(2-bromophenyl)piperazin-1-yl)methyl)-2-(2,6-dioxopiperidin-3-yl)isoindoline-1,3-dione] | B (80%< substrate protein remaining %≤ 100%) | B (80%< substrate protein remaining %≤ 100%) | B (80%< substrate protein remaining %≤ 100%) | B (80%< substrate protein remaining %≤ 100%) | B (80%< substrate protein remaining %≤ 100%) | A (0% ≤ substrate protein remaining % ≤ 80%)
8 | O=C1CCC(N2C(=O)c3ccc(CN4CCN(c5ccc(Br)cc5)CC4)cc3C2=O)C(=O)N1 (stereo not drawn) [GT-06295, 5-((4-(4-bromophenyl)piperazin-1-yl)methyl)-2-(2,6-dioxopiperidin-3-yl)isoindoline-1,3-dione] | B (80%< substrate protein remaining %≤ 100%) | B (80%< substrate protein remaining %≤ 100%) | B (80%< substrate protein remaining %≤ 100%) | B (80%< substrate protein remaining %≤ 100%) | B (80%< substrate protein remaining %≤ 100%) | A (0% ≤ substrate protein remaining % ≤ 80%)
9 | Cc1ccccc1N1CCN(Cc2ccc3c(c2)C(=O)N(C2CCC(=O)NC2=O)C3=O)CC1 (stereo not drawn) [GT-06296, 2-(2,6-dioxopiperidin-3-yl)-5-((4-(o-tolyl)piperazin-1-yl)methyl)isoindoline-1,3-dione] | B (80%< substrate protein remaining %≤ 100%) | B (80%< substrate protein remaining %≤ 100%) | B (80%< substrate protein remaining %≤ 100%) | B (80%< substrate protein remaining %≤ 100%) | B (80%< substrate protein remaining %≤ 100%) | A (0% ≤ substrate protein remaining % ≤ 80%)
10 | O=C1CCC(N2C(=O)c3ccc(CN4CCN(c5c(Cl)cccc5Cl)CC4)cc3C2=O)C(=O)N1 (stereo not drawn) [GT-06297, 5-((4-(2,6-dichlorophenyl)piperazin-1-yl)methyl)-2-(2,6-dioxopiperidin-3-yl)isoindoline-1,3-dione] | B (80%< substrate protein remaining %≤ 100%) | B (80%< substrate protein remaining %≤ 100%) | B (80%< substrate protein remaining %≤ 100%) | B (80%< substrate protein remaining %≤ 100%) | B (80%< substrate protein remaining %≤ 100%) | A (0% ≤ substrate protein remaining % ≤ 80%)
11 | O=C1CCC(N2C(=O)c3ccc(CN4CCN(c5ccc(Cl)c(Cl)c5)CC4)cc3C2=O)C(=O)N1 (stereo not drawn) [GT-06298, 5-((4-(3,4-dichlorophenyl)piperazin-1-yl)methyl)-2-(2,6-dioxopiperidin-3-yl)isoindoline-1,3-dione] | B (80%< substrate protein remaining %≤ 100%) | B (80%< substrate protein remaining %≤ 100%) | B (80%< substrate protein remaining %≤ 100%) | B (80%< substrate protein remaining %≤ 100%) | B (80%< substrate protein remaining %≤ 100%) | A (0% ≤ substrate protein remaining % ≤ 80%)
12 | O=C1CCC(N2C(=O)c3ccc(CN4CCN(c5cc(Cl)cc(Cl)c5)CC4)cc3C2=O)C(=O)N1 (stereo not drawn) [GT-06299, 5-((4-(3,5-dichlorophenyl)piperazin-1-yl)methyl)-2-(2,6-dioxopiperidin-3-yl)isoindoline-1,3-dione] | B (80%< substrate protein remaining %≤ 100%) | B (80%< substrate protein remaining %≤ 100%) | B (80%< substrate protein remaining %≤ 100%) | B (80%< substrate protein remaining %≤ 100%) | B (80%< substrate protein remaining %≤ 100%) | A (0% ≤ substrate protein remaining % ≤ 80%)
13 | O=C1CCC(N2C(=O)c3ccc(CN4CCN(c5cccc(F)c5F)CC4)cc3C2=O)C(=O)N1 (stereo not drawn) [GT-06300, 5-((4-(2,3-difluorophenyl)piperazin-1-yl)methyl)-2-(2,6-dioxopiperidin-3-yl)isoindoline-1,3-dione] | B (80%< substrate protein remaining %≤ 100%) | B (80%< substrate protein remaining %≤ 100%) | B (80%< substrate protein remaining %≤ 100%) | B (80%< substrate protein remaining %≤ 100%) | B (80%< substrate protein remaining %≤ 100%) | A (0% ≤ substrate protein remaining % ≤ 80%)
